Consider eight compounds from patent US6194423A, “Fused isoquinolines as dopamine receptor ligands” (priority 1999, dated 2001).

“Also recorded” adds a separate entry of the source.

Assay [1] addresses T1, primate D1A receptors expressed in C-6 glioma cells (Macaca mulatta, UniProt O77680).
T1 construct: expressed in transfected cells; host or cells: C-6 glioma cells (C-6-mD1A), membranes
Briefly: Adenylate cyclase (cAMP accumulation) assay in C-6-mD1A cell membranes. The class given is biochemical, rhesus macaque. The following applies: for agonist activity / efficacy, in words: cloned primate D1A receptors in C-6 glioma cells, relative to dopamine. The protocol: Cell Cultures. C-6 glioma cells expressing the rhesus macaque D1 A receptor, (C-6-mD1A; Machida et al., 1992) were grown in DMEM-H medium containing 4,500 mg/L glucose, L-glutamine, 5% fetal bovine serum and […] G418 or 2 μg/mL puromycin. Cells were maintained in a humidified incubator at 37° C. with 5% CO2.
Membrane Preparation. Cells were grown in 75 cm^2 flasks until confluent. The cells were rinsed and lysed with 10 mL of ice cold hypoosmotic buffer (HOB) (5 mM Hepes, 2.5 mM MgCl2, 1 mM EDTA; pH 7.4) for 10 minutes at 4° C. Cells were then scraped from the flasks using a sterile cell scraper from Baxter (McGaw Park, Ill.). Flasks received a final rinse with 5 mL of HOB. The final volume of the cell suspension recovered from each flask was ca. 14 mL. Scraped membranes from several flasks were then combined. The combined cell suspension was homogenized (10 strokes), 14 mL at a time, using a 15 mL Wheaton Teflon-glass homogenizer. The cell homogenates were combined and spun at 43,000×g (Sorvall RC-5B/SS-34, Du Pont, Wilmington, Del.) at 4° C. for 20 min. The supernatant was removed, and the pellet was resuspended (10 strokes) in 1 mL of ice cold HOB for each original flask of cells homogenized. This homogenate was then spun again at 43,000×g at 4° C. for 20 min. The supernatant was removed and the final pellet was resuspended (10 strokes) in ice cold storage buffer (50 mM Hepes, 6 mM MgCl2, 1 mM EDTA; pH 7.4) to yield a final concentration of ca. 2.0 mg of protein/mL. Aliquots of the final homogenate were stored in microcentrifuge tubes at -80° C.
Adenylate cyclase assay in C-6mD1A cells. Frozen membranes were thawed and added to assay tubes (10 μg protein/tube) containing a prepared reaction mixture [100 TnM Hepes, (pH 7.4), 100 mM NaCl, 4 mM MgCl2, 2 mM EDTA, 500 μM isobutyl methylxanthine (IBMX), 0.01% ascorbic acid, 10 μM pargyline, 2 mM ATP, 5 μM GTP, 20 mM phosphocreatine, 5 units of creatine phosphokinase (CPK), 1 μM propranolol] and selected drugs. The final reaction volume was 100 μL.
Basal cAMP activity was determined by incubation of tissue in the reaction mixture with no drug added. Tubes were assayed in duplicate and, after a 15 min incubation at 30° C., the reaction was stopped by the addition of 500 μL of 0.1 N HCl. Tubes were vortexed briefly, and then spun in a BHG HermLe Z 230 M microcentrifuge for five min at 15,000×g to precipitate particulates.
Radioimmunoassay (RIA) of CAMP. The concentration of cAMP in each sample was determined with an RIA of acetylated cAMP, modified from that previously described. Iodination of cAMP was performed using a method reported by Patel and Linden. Assay buffer was 50 mM sodium acetate buffer with 0.1% sodium azide (pH 4.75). Standard curves of cAMP were prepared in buffer at concentrations of 2 to 500 fmol/assay tube. To improve assay sensitivity, all samples and standards were acetylated with 10 μl of a 2:1 solution of triethylamine:acetic anhydride. Samples were assayed in duplicate. Each assay tube (total volume 300 μL) contained 25 μL of each sample, 75 μL of buffer, 100 μL of primary antibody (sheep, anti-cAMP, 1:100,000 dilution with 1% BSA in buffer) and 100 μL of [^125 I]-cAMP (50,000 dpm/100 μL of buffer). Tubes were vortexed and stored at 4° C. overnight (approx. 18 h). Antibody-bound radioactivity was separated by the addition of 25 μL of BioMag rabbit, anti-goat IgG (Advanced Magnetics, Cambridge Mass.), followed by vortexing and incubation at 4° C. for 1 h. […]
A general note: cAMP levels reflect the balance of adenylyl cyclase and phosphodiesterase activity.

In assay [2] the target is D2 receptors (Rattus norvegicus, UniProt P61169).
Assay [3] has as its target T2, rat striatal D1 receptors (Rattus norvegicus, UniProt P18901).
T2 construct: Frozen rat striata were homogenized; from tissue; host or cells: rat striatum (adult male Sprague Dawley), washed membrane homogenate
Briefly: D1 receptor binding ([3H]SCH23390) in rat striatal homogenates. The following applies: for D1 binding nH (Hill slope): competition against 3H-SCH23390. The protocol: Dopamine receptor binding assays.
Data analysis for radioreceptor assays. […] Data were normalized by expressing the average dpm at each competitor concentration as a percentage of total binding.
Competition curves were analyzed by non linear regression to determine estimates for the K0.5 and Hill slope (nH). Data represent the mean and standard error from three independent assays for each test compound.

For assay [4], the system named is MPTP-treated monkey. The following applies: MPTP-treated monkey model; cited from earlier work.
The subject of assay [5] is D1 receptors. As to the kind of experiment: Adenylate cyclase activity (cAMP accumulation) in rat striatal homogenates. The settings on record: rat striatum; for agonist activity / efficacy, in words: relative to dopamine. It is filed as biochemical. Here is the method:
Adenylate cyclase activity in rat striatum. The automated HPLC method of Schulz and Mailman was used to measure adenylate cyclase activity by separating cAMP from other labeled nucleotides. […] Triplicate determinations were performed for each drug concentration.
The reaction proceeded for 15 min at 30° C. and was terminated by the addition of 100 μL of 3% sodium dodecyl sulfate (SDS). […] Samples were centrifuged (10,000×g for 8-9 min), and the supernatants injected on an HPLC system (Waters Z-module or RCM 8×10 module equipped with a C18, 10 micron cartridge). […] The radioactivity in each fraction was determined by a flow-through radiation detector (Inus Systems, Tampa, Fla.) using Cerenkov counting. Sample recovery was based on UV measurement of total unlabeled CAMP peak areas quantified using PE Nelson (Cupertino, Calif.) Model 900 data collection modules and TurboChrom software.
Data analysis for adenylate cyclase studies. Data for each sample were expressed initially as pmol/mg/min cAMP. Baseline values of cAMP were subtracted from the total amount of cAMP produced in each drug condition. Data for each drug were expressed relative to the stimulation produced by 100 μM DA.

The test system of assay [6] is D1 receptor. The following applies: cited from earlier work.

T1 sequence (O77680 whole entry): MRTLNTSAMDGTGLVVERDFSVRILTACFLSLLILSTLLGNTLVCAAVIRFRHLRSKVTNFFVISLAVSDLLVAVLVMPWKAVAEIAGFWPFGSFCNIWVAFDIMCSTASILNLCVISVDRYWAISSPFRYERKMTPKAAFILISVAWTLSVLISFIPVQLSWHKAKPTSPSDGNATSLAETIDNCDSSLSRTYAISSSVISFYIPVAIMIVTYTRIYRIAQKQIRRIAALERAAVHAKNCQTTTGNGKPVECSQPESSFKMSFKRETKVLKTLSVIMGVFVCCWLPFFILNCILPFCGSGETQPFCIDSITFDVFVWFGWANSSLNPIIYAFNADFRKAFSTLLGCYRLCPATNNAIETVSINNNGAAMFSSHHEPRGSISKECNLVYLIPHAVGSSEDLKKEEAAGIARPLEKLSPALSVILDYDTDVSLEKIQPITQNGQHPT
T2 sequence (P18901 whole entry): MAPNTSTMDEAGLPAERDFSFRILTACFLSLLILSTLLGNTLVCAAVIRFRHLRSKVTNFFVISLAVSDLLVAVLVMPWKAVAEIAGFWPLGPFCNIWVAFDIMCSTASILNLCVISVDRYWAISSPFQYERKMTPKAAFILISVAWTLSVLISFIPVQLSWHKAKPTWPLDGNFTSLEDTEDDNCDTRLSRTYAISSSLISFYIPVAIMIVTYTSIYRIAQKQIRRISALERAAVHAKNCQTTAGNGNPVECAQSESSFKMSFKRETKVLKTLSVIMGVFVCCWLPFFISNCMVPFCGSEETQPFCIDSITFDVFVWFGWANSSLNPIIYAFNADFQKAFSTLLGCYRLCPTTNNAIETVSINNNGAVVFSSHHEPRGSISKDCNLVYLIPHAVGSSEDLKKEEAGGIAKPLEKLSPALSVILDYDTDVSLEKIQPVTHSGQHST
Sequence of D2 receptors (P61169 whole entry): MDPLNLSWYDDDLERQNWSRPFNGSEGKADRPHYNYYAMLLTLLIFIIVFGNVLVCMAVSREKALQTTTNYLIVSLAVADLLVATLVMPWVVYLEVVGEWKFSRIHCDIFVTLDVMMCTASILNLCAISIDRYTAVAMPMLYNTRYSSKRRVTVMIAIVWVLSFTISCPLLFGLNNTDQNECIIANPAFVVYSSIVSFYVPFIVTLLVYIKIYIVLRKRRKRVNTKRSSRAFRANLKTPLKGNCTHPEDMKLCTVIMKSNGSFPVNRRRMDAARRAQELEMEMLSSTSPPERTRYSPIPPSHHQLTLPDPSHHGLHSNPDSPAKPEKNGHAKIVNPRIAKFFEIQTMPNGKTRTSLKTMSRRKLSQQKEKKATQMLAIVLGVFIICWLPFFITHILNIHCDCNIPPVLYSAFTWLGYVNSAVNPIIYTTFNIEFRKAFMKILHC

On to `Oc1cc2c(cc1O)[C@H]1c3ccccc3CN[C@@H]1CC2` [dihydrexidine, (+)-trans-10,11-dihydroxy-5,6,6a,7,8,12b-hexahydrobenzo[a]phenanthridine], for which the “agonist activity / efficacy, in words” value is reported as “full efficacy; also recorded: full agonist relative to dopamine” in assay [1] and “full agonist relative to dopamine” in assay [5]. Moreover, the “slope of D2 competition curve, in words” value in assay [2] (FIG. 6, compared with chlorpromazine) is listed as “shallower than for the prototypical D2 antagonist chlorpromazine”. Moreover, the “slope of D1 competition curve, in words” value in assay [3] (FIG. 3) is listed as “shallower slopes”. Besides, in assay [3] (rat striatal homogenates), the “D1 binding nH (Hill slope)” value worked out at 0.65 ± 0.01. Further, in assay [4], the anti-parkinsonian effects result was “exceptional anti-parkinsonian effects”.

For `Oc1cc2c(cc1O)C(c1ccccc1)CNCC2` (single isomer, unassigned) [SKF 38393], in assay [6], the “intrinsic efficacy at D1 receptor, in words” value (from here on “intrinsic efficacy”) is listed as “generally lacked full intrinsic efficacy”. Also, the “agonist activity / efficacy, in words” value is recorded as “partial agonist” in assay [1], “only of partial efficacy” in assay [1] (listed as (+)-2) and “partial agonist” in assay [5]. Besides, the “D1 binding nH (Hill slope)” value in assay [3] (rat striatal homogenates) is on record as 0.75 ± 0.08.

In the case of `Oc1cc2c(cc1O)[C@H]1c3ccccc3CN[C@@H]1CC2` [6aR,12bS], the “intrinsic efficacy” value in assay [6] was “high affinity full agonist at the D1 receptor”.

`Oc1ccc2c(c1O)Cc1cccc3c1C2CNC3` (racemic) [dinapsoline, (±)-8,9-dihydroxy-2,3,7,11b-tetrahydro-1H-naphtho[1,2,3-de] isoquinoline]: the EC50 (usually the concentration that produces a half-maximal response) in assay [1] (C-6-mD1 cells, average of two experiments in duplicate, read-out: EC50 in stimulating synthesis of cAMP via D1 receptors) is ~30 nM; in assay [5] (read-out: EC50 in stimulating synthesis of cAMP via D1 receptors) it was ~30 nM. In addition, the “agonist activity / efficacy, in words” value was “full efficacy; also recorded: full agonist activity; also recorded: full agonist relative to dopamine” in assay [1] and “full agonist activity; also recorded: full agonist relative to dopamine” in assay [5]. In addition, in assay [3] (FIG. 3), the “slope of D1 competition curve, in words” value is “shallow competition curve; also recorded: shallower slopes”. Moreover, the “D1 affinity, in words” value in assay [3] (compared with dihydrexidine, rat striatal homogenates, FIG. 3) is on record as “high affinity for dopamine D1 receptors; also recorded: almost identical affinity as dihydrexidine”. Further, the “D1 binding nH (Hill slope)” value in assay [3] (rat striatal homogenates) was determined as 0.66; in assay [3] (rat striatal homogenates, listed as (±)-4), 0.66 ± 0.01.

Regarding `CN1CCc2cc(Cl)c(O)cc2[C@@H](c2ccccc2)C1` [SCH23390], the “D1 binding nH (Hill slope)” value in assay [3] (rat striatal homogenates) is recorded as 1.05 ± 0.01.

Take `NC[C@@H]1O[C@H](C23CC4CC(CC(C4)C2)C3)Cc2c1ccc(O)c2O` [Example A-77636]: the anti-parkinsonian effects entry in assay [4] was “exceptional anti-parkinsonian effects”.

Take `CN(C)CCCN1c2ccccc2Sc2ccc(Cl)cc21` [Chlorpromazine]: in assay [2] (competition against 3H-spiperone, rat striatal homogenates), the “D2 binding nH (Hill slope)” value is 0.93 ± 0.01.

Take `C=CCN1CCc2c(cc(O)c(O)c2Cl)C(c2ccccc2)C1` (stereo not drawn) [SKF 82958]: the “intrinsic efficacy” value in assay [6] is recorded as “not to have full intrinsic efficacy in preparations with decreased receptor reserve”.
